System: 845751-090-R-J2-PDC tumor spheroid viability
Experiment: Anticancer human tumor 845751-090-R-J2-PDC patient-derived head and neck squamous carcinoma cell line growth inhibition [IpAb]
Settings: spheroids with HUVEC and MSC; for IC50: curve of first compound; for viability, T/C: stronger effect = lower value
Source text: Combinatorial screen of targeted agents with ipatasertib and abemaciclib in multi-cell type tumor spheroids
A high-throughput screen of multi-cell type tumor spheroids was designed to identify active combinations of targeted small molecules and ipatasertib or abemaciclib. Complex spheroids include a stromal component modeled by human endothelial cells (HUVEC) and fibroblasts modeled by human mesenchymal stem cells (MSCs). The concentration ranges selected for each drug and investigational agent were based upon clinically achievable concentrations if the clinical Cmax of the agent was known.
Compounds. The drugs and investigational agents: ipatasertib (NSC767898), abemaciclib(NSC768073), selumetinib (NSC741078), trametinib (758246), adavosertib (NSC754352), everolimus (NSC733504), sapanisertib (NSC764658), vemurafenib (NSC761431), venetoclax (NSC766270), copanlisib (NSC809693), apelisib (NSC765974), palbociblib (NSC758247), vemurafenib (NSC761431), dabrafenib (NSC764134), ravoxertinib (NSC781343), BMS-387032 (NSC767048), sotorasib (NSC818433), talazoparib (NSC767125) and afursertib (NSC778305), were obtained from the National Cancer Institute (NCI) Developmental Therapeutics Program Chemical Repository. The FDA-approved anticancer drug set is available from the NCI Developmental Therapeutics Program. […] The stock solutions were prepared in dimethyl sulfoxide (DMSO, Sigma-Aldrich, St. Louis, MO, cat. D2650) at 800-fold the tested concentration and stored at -70 degrees C prior to their use. All drugs and investigational agents were tested over a range starting from a high concentration at or near the clinical Cmax and decreasing in half-log increments. If the clinical Cmax for an agent had not been determined, the highest concentration tested was 10 microM.
NCI60 Cell Culture. NCI60 cell lines were obtained from the NCI Developmental Therapeutics Program Tumor Repository. For each lot of cells, the Repository performed Applied Biosystems AmpFLSTR Identifiler testing with PCR amplification to confirm consistency with the published Identifier STR profile for each cell line. Cells were kept in continuous culture for no more than 20 passages. The optimal seeding densities for each of the cell lines at each time point assessed were determined prior to performing the concentration response studies. Briefly, the NCI60 human tumor lines were grown as monolayers in RPMI 1640 medium supplemented with 10% FBS and 2 mmol/L L-glutamine.
An additional 9 lines were from the NCI60 cell line panel including MDA-MB-231 breast carcinoma, MDA-MB-468 breast carcinoma, MCF7 breast carcinoma, Hs578T breast carcinoma, MALME-3M melanoma, SK-MEL-2 melanoma, SK-OV-3 ovarian carcinoma, DU-145 prostate carcinoma, PC-3 prostate carcinoma, all cell lines along with major genetic alterations are listed on Table 2. Pooled donor human umbilical vein endothelial cells (HUVEC, Lonza, cat. CC-2519) and human mesenchymal stem cells (hMSC, Lonza, cat. PT-2501) were purchased from Lonza (Walkersville, MD).
PDMR cell lines were grown in complete medium (DC medium): Dulbecco's modified Eagle's medium (DMEM)/F12 supplemented with 5% fetal bovine serum (FBS), 2 mM L-glutamine, 100 U/mL penicillin and 100 µg/ml streptomycin, 0.4 µg/ml hydrocortisone, 10 ng/ml epidermal growth factor (EGF) recombinant human protein, 24 µg/mL adenine, and 0.1 mg/mL primocin. During culture from frozen stock vials, PDMR cells were cultured in the same medium containing 10 µM Y-27632 (see Table 3). The PDCs were cultured in complete DMEM/F12 media without 10 microM Y-27632 dihydrochloride for at least two passages prior to the screen. The pooled donor HUVEC and hMSC were cultured in endothelial cell growth medium 2 (PromoCell, Heidelberg, Germany, cat. C-22011) and mesenchymal stem cell growth medium 2 (PromoCell, cat. C-28009), respectively. For all experiments, HUVEC and hMSC were used at passages </=5.
[…]

[1] = second compound 0.01 µM, first compound 0.0316 µM
[2] = second compound 0.01 µM, first compound 0.1 µM
[3] = second compound 0.01 µM, first compound 0.316 µM
[4] = second compound 0.01 µM, first compound 1 µM
[5] = second compound 0.01 µM, first compound 3.16 µM
[6] = second compound 0.01 µM, first compound 10 µM
[7] = second compound 0.0316 µM, first compound 0.0316 µM
[8] = second compound 0.0316 µM, first compound 0.1 µM
[9] = second compound 0.0316 µM, first compound 0.316 µM
[10] = second compound 0.0316 µM, first compound 1 µM
[11] = second compound 0.0316 µM, first compound 3.16 µM
[12] = second compound 0.0316 µM, first compound 10 µM
[13] = second compound 0.1 µM, first compound 0.0316 µM
[14] = second compound 0.1 µM, first compound 0.1 µM
[15] = second compound 0.1 µM, first compound 0.316 µM
[16] = second compound 0.1 µM, first compound 1 µM
[17] = second compound 0.1 µM, first compound 3.16 µM
[18] = second compound 0.1 µM, first compound 10 µM
[19] = second compound 0.316 µM, first compound 0.0316 µM
[20] = second compound 0.316 µM, first compound 0.1 µM
[21] = second compound 0.316 µM, first compound 0.316 µM
[22] = second compound 0.316 µM, first compound 1 µM
[23] = second compound 0.316 µM, first compound 3.16 µM
[24] = second compound 0.316 µM, first compound 10 µM
[25] = second compound 1 µM, first compound 0.0316 µM
[26] = second compound 1 µM, first compound 0.1 µM
[27] = second compound 1 µM, first compound 0.316 µM
[28] = second compound 1 µM, first compound 1 µM
[29] = second compound 1 µM, first compound 3.16 µM
[30] = second compound 1 µM, first compound 10 µM
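Further: spheroids exposed to compounds for 7 days before readout.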
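Wherever viability, T/C is given: CTG3D luminescence normalised so that 100% = DMSO vehicle control.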

Cn1ncc(Cl)c1-c1cc(C(=O)NC(CN)Cc2cccc(F)c2)sc1Cl (stereo not given) + CCN1CCN(Cc2ccc(Nc3ncc(F)c(-c4cc(F)c5nc(C)n(C(C)C)c5c4)n3)nc2)CC1
IC50 (second compound 0.01 µM): 178 nM | IC50 (second compound 0.0316 µM): 94.7 nM | IC50 (second compound 0.1 µM): 160 nM | IC50 (second compound 0.316 µM): 170 nM | IC50 (second compound 1 µM): 401 nM | viability, T/C [1]: 97.8% | viability, T/C [2]: 58% | viability, T/C [3]: 34% | viability, T/C [4]: 32.3% | viability, T/C [5]: 8.93% | viability, T/C [6]: 0.28% | viability, T/C [7]: 90.9% | viability, T/C [8]: 38.1% | viability, T/C [9]: 30.7% | viability, T/C [10]: 28.1% | viability, T/C [11]: 8.85% | viability, T/C [12]: 0.59% | viability, T/C [13]: 86.3% | viability, T/C [14]: 56.7% | viability, T/C [15]: 34.1% | viability, T/C [16]: 29.2% | viability, T/C [17]: 6.19% | viability, T/C [18]: 0.25% | viability, T/C [19]: 63.4% | viability, T/C [20]: 72% | viability, T/C [21]: 26.7% | viability, T/C [22]: 25.8% | viability, T/C [23]: 4.76% | viability, T/C [24]: 0.45% | viability, T/C [25]: 64.3% | viability, T/C [26]: 75.1% | viability, T/C [27]: 53.1% | viability, T/C [28]: 27.4% | viability, T/C [29]: 3.89% | viability, T/C [30]: 0.61%

Cc1nc(NC(=O)N2CCCC2C(N)=O)sc1-c1ccnc(C(C)(C)C(F)(F)F)c1 (stereo not given) + CCN1CCN(Cc2ccc(Nc3ncc(F)c(-c4cc(F)c5nc(C)n(C(C)C)c5c4)n3)nc2)CC1
IC50 (second compound 0.01 µM): 101 nM | IC50 (second compound 0.0316 µM): 76.4 nM | IC50 (second compound 0.1 µM): < 31.6 nM | IC50 (second compound 0.316 µM): 36.2 nM | IC50 (second compound 1 µM): 114 nM | viability, T/C [1]: 69.5% | viability, T/C [2]: 46.2% | viability, T/C [3]: 37.3% | viability, T/C [4]: 28.9% | viability, T/C [5]: 12.9% | viability, T/C [6]: 11.6% | viability, T/C [7]: 62.1% | viability, T/C [8]: 41.9% | viability, T/C [9]: 40.9% | viability, T/C [10]: 22.5% | viability, T/C [11]: 15.5% | viability, T/C [12]: 10.9% | viability, T/C [13]: 41.8% | viability, T/C [14]: 43.6% | viability, T/C [15]: 27.4% | viability, T/C [16]: 20.8% | viability, T/C [17]: 14.7% | viability, T/C [18]: 10.1% | viability, T/C [19]: 51.2% | viability, T/C [20]: 39.8% | viability, T/C [21]: 25.9% | viability, T/C [22]: 20.9% | viability, T/C [23]: 17.9% | viability, T/C [24]: 12.4% | viability, T/C [25]: 54.9% | viability, T/C [26]: 50.5% | viability, T/C [27]: 42.4% | viability, T/C [28]: 24.1% | viability, T/C [29]: 18.7% | viability, T/C [30]: 11.3%

Source: PubChem BioAssay AID2060333 (Molecular Pharmacology Branch, DTP, NCI, 2025)
